Several values for one entry are separate records, joined by “and”; a condition that tells them apart may be missing. Equal values may be shown once. Entries after “also recorded” stand apart in the source; their conditions may differ.
Assays:
Format in all cases: cell-based
Parameters in all cases: To assess STING degradation and recovery in human foreskin fibroblasts HFF-1 cells; host or cells: HFF-1 human foreskin fibroblasts
[1] = molecular target: T1, STING (Homo sapiens, UniProt Q86WV6); experiment: Inhibition of STING-agonist-induced IFN-β and CXCL10 release (Figure 11); conditions: for CXCL10 media concentration: Figure 11B; for IFN media concentration: Figure 11A; for secretion of Functional Type I IFN / secretion of CXCL10: human skin fibroblasts, 5 µM, 0.3 µM diABZI; for secretion of Functional Type I IFN: Figure 11 (A); for secretion of CXCL10: Figure 11 (B)
Procedure: HFF-1 cells were assessed for inhibition of STING-agonist-induced IFN-β and CXCL10 release in cells treated with Compounds A9 and A11.
HFF-1 cells were cultured as described in Example 7 above except that cells were seeded in a 24-well plate at 30,000 cells/well. […]

[2] = molecular target: T1, STING; experiment: Western Blot of diABZI-induced STING activation in HFF-1 cells (Figure 10A); conditions: 5 µM for 15 min, then 300 nM diABZI for 2 h or 5 h, versus diABZI c3 alone
Procedure: (§1) To assess whether S1 STING ligands inhibit STING activation, primary human skin fibroblasts (Figure 9) or HFF-1 cells (Figure 10) were treated with various compounds which comprise only an S1 ligand domain and a Linker domain before undergoing Western Blot analysis as described below.
(§2) Cell culture methods as described above for primary human skin fibroblast and HFF-1 cells were used in the current experiments. Methods as described above for H596, H1650 and HaCat cells were applied for cell lysis and western blotting.
In Figure 10A, HFF-1 cells were treated with 5 µM of compounds A11, A25, A26, or A30, or 0.5 µM STING antagonist control for 15 min followed prior to addition of 300 nM diABZI and incubation for 2 h or 5 h. The cells were lysed and analysed on WB. As additional controls, cells were left untreated (UT), treated with Lipofectamine (Lipo control) or with compounds A26 or A30 as single agent. […]

[3] = molecular target: T1, STING; experiment: Western Blot of cGAMP-induced STING activation in HFF-1 cells (Figure 10B); conditions: 5 µM for 15 min, then 8 µg/mL cGAMP for 2 h or 5 h, versus cGAMP alone
Procedure: as §1, §2
(§3) In Figure 10B, similar experiments were performed as for Figure 10A, except that cells were activated with 8 µg/mL cGAMP instead of diABZI c3. In addition, the controls used in this set of experiments was A11, A25, A26 and A30 as a single agent with no cGAMP activation.

[4] = molecular target: T1, STING; experiment: Western Blot of STING agonist activity of compounds as single agent in HFF-1 cells; conditions: compound as single agent, no activation
Procedure: S1 is a STING ligand. […] Any standard method known in the art may be used to determine STING agonist activity. For example, STING agonist activity (or lack thereof) can be measured as described in Examples 11 and/or Example 12. For example, following the method described in Example 11, cells may be incubated with a compound comprising a S1 STING ligand. The cells may be lysed and Western Blotting performed. Western blots may be probed for phospho-STING and/or phospho-TBK1. Cells incubated with STING ligands which are not agonists will not result in detectable phospho-STING or phospho-TBK1 using the methods outlined above and in Examples 11. In another example, following the method described in Example 12, human skin fibroblasts may be pretreated for 2hours with a serial dilution of a test compounds, for example a compound comprising an S1 ligand, prior to stimulation with a STING agonist (e.g. 300 nM GSK STING agonist). Supernatants may then be harvested after STING agonist stimulation (e.g. after 20 h stimulation). IFN-a/b may be measured in the supernatants using HEK-Blue IFN-α/β bioassay (Invivogen) to determine a half-maximal inhibitory concentration of a test compound.
as §1, §2
In Figure 10A, HFF-1 cells were treated with 5 µM of compounds A11, A25, A26, or A30, or 0.5 µM STING antagonist control for 15 min followed prior to addition of 300 nM diABZI and incubation for 2 h or 5 h. The cells were lysed and analysed on WB. As additional controls, cells were left untreated (UT), treated with Lipofectamine (Lipo control) or with compounds A26 or A30 as single agent. The WB membrane was probed for p-STING, STING, p-IRF3, p-TBK1, and Vinculin.
as §3

[5] = molecular target: T1, STING; experiment: Western Blot of diABZI-induced STING activation in primary human skin fibroblasts (Figure 9); conditions: 5 µM; for LC3B lipidation / P-TBK1: 0.3 µM diABZI; for P-TBK1 / P-STING: versus diABZI c3 only; for P-STING: before (-2h, -1h), simultaneously with, or 15 minutes after 0.3 µM diABZI
Procedure: as §1, §2
Cells were incubated with A9 or A11 for 1 or 2 hours before addition of diABZI c3, treated with test compound and diABZI c3 simultaneously, or treated with A9 or A11 after 15 minutes incubation with diABZI c3. As a control, cells were also treated with diABZI c3 alone.

[6] = 5 µM compound 1 to 2 hours before, simultaneously with, or 15 minutes after 0.3 µM diABZI c3

T1 sequence (Q86WV6 whole entry): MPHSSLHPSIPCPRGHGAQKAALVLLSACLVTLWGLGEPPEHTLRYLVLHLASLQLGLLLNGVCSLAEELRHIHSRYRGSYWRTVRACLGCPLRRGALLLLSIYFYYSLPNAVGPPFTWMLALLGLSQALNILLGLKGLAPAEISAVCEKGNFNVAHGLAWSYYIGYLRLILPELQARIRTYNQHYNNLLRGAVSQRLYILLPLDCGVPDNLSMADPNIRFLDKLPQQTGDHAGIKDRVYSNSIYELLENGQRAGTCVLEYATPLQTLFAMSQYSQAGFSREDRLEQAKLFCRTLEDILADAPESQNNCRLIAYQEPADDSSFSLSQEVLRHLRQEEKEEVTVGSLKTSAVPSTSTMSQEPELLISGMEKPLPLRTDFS

CCn1nc(C)cc1C(=O)Nc1nc2cc(C(N)=O)cc(OC)c2n1C/C=C/Cn1c(NC(=O)c2cc(C)nn2CC)nc2cc(C(N)=O)cc(OCCCN3CCOCC3)c21 [diABZI c3, reference compound]
CXCL10 media concentration ([1]; cells treated with diABZI c3 alone): ~ 60 pg/mL | IFN media concentration ([1]; cells treated with only diABZI c3): ~ 200 U/mL and ~ 100 U/mL

CCn1nc(C)cc1C(=O)N=c1n(C)c2cc(C(N)=O)ccc2n1CCC(CCn1c(=NC(=O)c2cc(C)nn2CC)n(C)c2cc(C(N)=O)ccc21)OCC(=O)N1CCOC[C@@H]1c1ccccc1 (stereo partly drawn) [A30, 1-(3-{2-[(S)-3-Phenyl-4-morpholinyl]-2-oxoethoxy}-5-{5-carbamoyl-2-[(1-ethyl-3-methyl-5-pyrazolyl)carbonylimino]-3-methyl-2,3-dihydro-1H-1,3-benzimidazol-1-yl}pentyl)-2-[(1-ethyl-3-methyl-5-pyrazolyl)carbonylimino]-3-methyl-2,3-dihydro-1H-1,3-benzimidazole-5-carboxamide]
STING, TBK1 and IRF3 phosphorylation [2]: lower; also recorded: inhibited STING, IRF3 and TBK1 phosphorylation and activation | STING, TBK1 and IRF1 phosphorylation [3]: lower; also recorded: inhibited STING, IRF3 and TBK1 phosphorylation and activation | phosphorylation of STING, IRF1 or TBK1 [4]: do not induce STING, IRF3 or TBK1 phosphorylation and activation alone

CCn1nc(C)cc1C(=O)N=c1n(C)c2cc(C(N)=O)ccc2n1CCC(CCn1c(=NC(=O)c2cc(C)nn2CC)n(C)c2cc(C(N)=O)ccc21)OCC(=O)N1CCc2cc(OC)ccc2C1 (stereo not drawn) [A9, 1-(5-{5-Carbamoyl-2-[(1-ethyl-3-methyl-5-pyrazolyl)carbonylimino]-3-methyl-2,3-dihydro-1H-1,3-benzimidazol-1-yl}-3-[2-(6-methoxy-1,2,3,4-tetrahydro-2-isoquinolyl)-2-oxoethoxy]pentyl)-2-[(1-ethyl-3-methyl-5-pyrazolyl)carbonylimino]-3-methyl-2,3-dihydro-1H-1 ,3-benzimidazole-5-carboxamide]
LC3B lipidation [5]: reduced LC3B lipidation; also recorded: decrease in LC3B lipidation | P-TBK1 [5]: reduced P-TBK1 intensity | P-STING [5]: reduced intensity; also recorded: decrease in P-STING | IFN media concentration [1, 6]: ~ 100 U/mL | secretion of Functional Type I IFN [1]: inhibits secretion | secretion of CXCL10 [1]: inhibits secretion

CCn1nc(C)cc1C(=O)N=c1n(C)c2cc(C(N)=O)ccc2n1CCC(CCn1c(=NC(=O)c2cc(C)nn2CC)n(C)c2cc(C(N)=O)ccc21)OCC(=O)N1CCC[C@H]1c1cccc(OC)c1 (stereo partly drawn) [A11, 1-(3-{2-[(S)-2-(3-Methoxyphenyl)-1-pyrrolidinyl]-2-oxoethoxy}-5-{5-carbamoyl-2-[(1-ethyl-3-methyl-5-pyrazolyl)carbonylimino]-3-methyl-2,3-dihydro-1H-1,3-benzimidazol-1-yl}pentyl)-2-[(1-ethyl-3-methyl-5-pyrazolyl)carbonylimino]-3-methyl-2,3-dihydro-1H-1,3-benzimidazole-5-carboxamide]
LC3B lipidation [5]: reduced LC3B lipidation | P-TBK1 [5]: reduced P-TBK1 intensity | P-STING [5]: reduced intensity; also recorded: decrease in P-STING | STING, TBK1 and IRF3 phosphorylation [2]: lower; also recorded: inhibited STING, IRF3 and TBK1 phosphorylation and activation | IFN media concentration [1, 6]: -10 - 20 U/mL | CXCL10 media concentration ([1]; 5 µM compound before, simultaneously with, or after diABZI c3, filled bars): -10 to 20 pg/mL | secretion of Functional Type I IFN [1]: inhibits secretion | secretion of CXCL10 [1]: inhibits secretion | STING, TBK1 and IRF1 phosphorylation [3]: lower; also recorded: inhibited STING, IRF3 and TBK1 phosphorylation and activation | phosphorylation of STING, IRF1 or TBK1 [4]: do not induce STING, IRF3 or TBK1 phosphorylation and activation alone

CCn1nc(C)cc1C(=O)N=c1n(C)c2cc(C(N)=O)ccc2n1CCC(CCn1c(=NC(=O)c2cc(C)nn2CC)n(C)c2cc(C(N)=O)ccc21)OCC(=O)N1CCC[C@H]1C(=O)N1CCc2cc(OC)ccc2C1 (stereo partly drawn) [A26, 1-[3-(2-{(S)-2-[(6-Methoxy-1,2,3,4-tetrahydro-2-isoquinolyl)carbonyl]-1-pyrrolidinyl}-2-oxoethoxy)-5-{5-carbamoyl-2-[(1-ethyl-3-methyl-5-pyrazolyl)carbonylimino]-3-methyl-2,3-dihydro-1H-1,3-benzimidazol-1-yl}pentyl]-2-[(1-ethyl-3-methyl-5-pyrazolyl)carbonylimino]-3-methyl-2,3-dihydro-1H-1,3-benzimidazole-5-carboxamide]
STING, TBK1 and IRF3 phosphorylation [2]: lower; also recorded: inhibited STING, IRF3 and TBK1 phosphorylation and activation | STING, TBK1 and IRF1 phosphorylation [3]: lower; also recorded: inhibited STING, IRF3 and TBK1 phosphorylation and activation | phosphorylation of STING, IRF1 or TBK1 [4]: do not induce STING, IRF3 or TBK1 phosphorylation and activation alone

CCn1nc(C)cc1C(=O)N=c1n(C)c2cc(C(N)=O)ccc2n1CCC(CCn1c(=NC(=O)c2cc(C)nn2CC)n(C)c2cc(C(N)=O)ccc21)OCC(=O)N1CCC[C@H]1c1ccccc1 (stereo partly drawn) [A25, 1-(3-{2-[(S)-2-Phenyl-1-pyrrolidinyl]-2-oxoethoxy}-5-{5-carbamoyl-2-[(1-ethyl-3-methyl-5-pyrazolyl)carbonylimino]-3-methyl-2,3-dihydro-1H-1,3-benzimidazol-1-yl}pentyl)-2-[(1-ethyl-3-methyl-5-pyrazolyl)carbonylimino]-3-methyl-2,3-dihydro-1H-1,3-benzimidazole-5-carboxamide]
STING, TBK1 and IRF3 phosphorylation [2]: lower | STING, TBK1 and IRF1 phosphorylation [3]: lower | phosphorylation of STING, IRF1 or TBK1 [4]: do not induce STING, IRF3 or TBK1 phosphorylation and activation alone
